From patent US20160015786A1, “MOBILIZING AGENTS AND USES THEREFOR” (MATER MEDICAL RESEARCH INSTITUTE LIMITED, priority 2013, published 2016)

Assays:
[1] = tested on: hematopoietic stem and progenitor cells; assay: Phenotypic HSCs, HSPCs and myeloid progenitors in blood, spleen and bone marrow by flow cytometry; format: in vivo, C57BL/6 mice
Protocol: Additional HIF-α potentiating agents in the form of PHD inhibitors were tested for their ability to enhance mobilization induced by G-CSF. Compound A, Compound B or Compound C, were tested in male, 7 weeks-old C57BL/6 mice. Mice were injected twice daily sub-cutaneously with rhuG-CSF at a dose of 125 μg/kg per injection for four days. Mice were gavaged with 20 mg/kg Compound A, Compound B, Compound C or vehicle control once daily for three days beginning on day 1 of the experiment.
(§1) At the end of treatment, blood was harvested by cardiac puncture, mice were sacrificed by cervical dislocation and spleens harvested. Femurs were removed, cleaned and the bone marrow was flushed with 1 mL PBS+10% newborn calf serum (NCS).
(§2) The number of phenotypic hematopoietic stem and progenitor cells remaining in the bone marrow following treatment was measured by flow cytometry using antibodies specific for lineage markers (CD3, CD5, CD45R/B220, F4/80, Gr1, CD41, Ter119), Sca-1, Kit, CD48 and CD150. Similarly, the number of phenotypic hematopoietic stem cells mobilized into the blood and spleen were measured. Colony assays were also performed on blood and spleen to determine the number of colony forming cells per mL of blood and per spleen. All results are presented as mean f standard deviation with n=6 per groups. Levels of significance for differences were calculated using the Student's t-test.
All procedures were approved by the animal experimentation ethics committee of the University of Queensland. All experiments were performed on nine to twelve-week old C57BL/6 male mice or genetically modified mice back-crossed at least 10 times into C57BL/6. Recombinant human G-CSF (Amgen, Thousand Oaks, Calif.) was injected twice daily subcutaneously at 125 μg/kg per injection for up to 4 consecutive days. Plerixafor (AMD3100 octohydrochloride, Tocris Bioscience, Bristol, UK) was injected intraperitoneally as a single 16 mg/kg dose corresponding to 10 mg/kg of AMD3100 base. Tissues were harvested 1 h after Plerixafor administration. […] Compounds H and J were administered at 60 mg/kg and Compound K was administered at 100 mg/kg. Control mice were injected with an equivalent volume of saline. At specified time-points, mice were anesthetized with isoflurane before cardiac puncture to harvest blood. Mice were then euthanized by cervical dislocation and BM and bones harvested.
Following flushing with PBS plus 2% NCS, enriched central BM cells were pelleted at 370×g for 5 minutes at 4° C. and resuspended in CD16/CD32 hybridoma 2.4G2 supernatant to block IgGFc receptors. HSCs were stained with the biotinylated lineage antibody cocktail (CD3, CD5, B220, CD11b, Gr-1, Ter119) and biotinylated CD41 together with streptavidin (SAV)-Pacific Blue, anti-Sca-1-PECY7, anti-KIT-APC, CD48-FITC and CD150-PE as previously described (17). Data were acquired on a CyAn (Dako Cytomation) flow cytometer and analyzed following compensation with single color controls using FlowJo software (Tree Star, Ashland, Oreg.).

HIF-1α protein = assay: Western blot of bone marrow cell lysates for HIF-1α stabilization in treated mice; format: in vivo, C57Bl/6 mice; settings: FIG. 1A
Text: FIGS. 1A, 1B, 1C, and 1D are graphical representations showing the effect of Compound X and G-CSF on HIF-1α protein and CFC mobilization. (1A) Western blot analysis of bone marrow (BM) cell lysates from mice treated with saline (Saline), with Compound X for 3 days (X3), with G-CSF for 2 days (G2) or with both Compound X and G-CSF (G2X3) for presence of HIF-1α and β-actin. Each lane represents a different mouse. […] (1D) Time-course numbers of CFC per mL blood or per spleen for mice treated with Plerixafor with or without Compound X. Mice were treated with Plerixafor for 1 hour (P1) together with Compound X for 1, 2, 3 or 4 days (P1X1-P1X4). Data are mean±SD of 6 mice per condition. * p<0.05; ** p<0.01; *** p<0.001.
To evaluate whether pharmacological stabilization of HIF-1α protein would enhance HSC mobilization in response to G-CSF, C57Bl/6 mice were treated with recombinant human G-CSF (rhuG-CSF) twice daily for 1-3 days together with a PHD inhibitor, Compound X, daily for 3 days. […] Mobilization of colony-forming cells (CFCs) to the blood and spleen were measured (FIG. 1B). […] To assess the optimum duration of Compound X treatment, Compound X was administered for 1-4 days and G-CSF for the last 2 days before tissue sampling (FIG. 1C).
All procedures were approved by the animal experimentation ethics committee of the University of Queensland. […]

[2] = tested on: colony-forming cells (CFCs); assay: Mobilization of colony-forming cells (CFC/CFU) to blood and spleen, colony assays; format: in vivo, C57BL/6 mice
Protocol: Mobilization of colony-forming cells (CFCs) to the blood and spleen were measured (FIG. 1B).
This was divided into two experiments in which G-CSF was administered for 2 days in one experiment and 4 days in the other (FIG. 2). […] Mobilization of CFCs, phenotypic Lin^−CD41^−Sca1^+Kit^+ HSPCs and Lin^−CD41^− Sca1^+Kit^+CD48^−CD150^+ HSCs were measured in blood and spleens.
Additional HIF-α potentiating agents in the form of PHD inhibitors were tested for their ability to enhance mobilization induced by G-CSF.
as §1
as §2, with “All results are presented as mean f standard deviation with n=6 per groups.” left out
All procedures were approved by the animal experimentation ethics committee of the University of Queensland. […] Plerixafor (AMD3100 octohydrochloride, Tocris Bioscience, Bristol, UK) was injected intraperitoneally as a single 16 mg/kg dose corresponding to 10 mg/kg of AMD3100 base. Tissues were harvested 1 h after Plerixafor administration. […] Control mice were injected with an equivalent volume of saline. At specified time-points, mice were anesthetized with isoflurane before cardiac puncture to harvest blood. Mice were then euthanized by cervical dislocation and BM and bones harvested.
Optimal concentrations of mouse IL-3, IL-6 and soluble kit ligand were added as conditioned media from stably transfected BHK cell lines. Colonies were counted after 7 days culture at 37° C. in a humidified incubator containing 5% CO2.

[3] = Compound X added to 2 days G-CSF plus Plerixafor, P<0.01
[4] = G-CSF 2 days together with Compound X, p<0.005
[5] = Compound X added to 2 days G-CSF plus Plerixafor, p<0.005

With O=C(O)CNC(=O)c1ncc2cc(Sc3ccccc3)ccc2c1O [Compound X, [(4-Hydroxy-7-phenylsulfanyl-isoquinoline-3-carbonyl)-amino]-acetic acid] as the compound, how does the “boost of mobilization of HSPCs in the blood” value [1, 3] read?
The value was 2.5 fold.

What about the “boost of mobilization of HSPCs in the spleen” value [1, 3] of the same compound?
Its value is 4 fold.

What about the “boost of mobilization of phenotypic HSCs” value [1, 3] of the same compound?
Its value is 3 fold.

And the “number of phenotypic HSCs and HSPCs in the blood” value ([1]; Compound X added to 4 days G-CSF and Plerixafor, P<0.001)?
Its value is “dramatically increased”.

And the “number of Lin−Sca1+Kit+ HSPCs in spleen versus G-CSF alone” value [1, 4]?
The value was “tripled”.

And the “number of Lin−Sca1+Kit+ HSPCs in the blood versus G-CSF alone” value [1, 4]?
Its value is “doubled”.

And the “increase in number of phenotypic HSCs versus G-CSF alone” value ([1]; G-CSF 2 days together with Compound X, p<0.005, FIG. 2C-D)?
The value was 3 fold.

What about the “stabilization of HIF-1α protein in bone marrow leukocytes” value (HIF-1α protein; Compound X daily for 3 days) of the same compound?
Its value is “stabilization of HIF-1α protein was demonstrated”.

And the “stabilization of HIF-1α protein compared to G-CSF alone” value (HIF-1α protein; Compound X in combination with G-CSF)?
The value was “significantly increased”.

And the “mobilization of HSPC to the spleen” value ([2]; 1 hr following Plerixafor treatment with or without Compound X, FIG. 1D)?
The value was “no significant mobilization”.

What about the “day of Compound X administration at which CFC mobilization into blood and spleen peaks” value ([2]; Compound X 1-4 days, G-CSF for the last 2 days, FIG. 1C) of the same compound?
The value was 3 days.

What about the “further increase of CFC/mL mobilized into blood” value [2, 5] of the same compound?
Its value is 2.5 fold.

And the “further increase of CFC/spleen” value [2, 5]?
The value was 4 fold.

And the “boost of CFC/mL blood” value ([2]; Compound X added to 4 days G-CSF plus Plerixafor, p<0.005)?
Its value is 2.5 fold.

And the “CFC mobilization into the blood” value ([2]; Compound X alone for 3 days)?
Its value is “did not induce”.

What about the “increase in CFCs mobilized per mL blood” value ([2]; Example 1: Compound X 3 days added to G-CSF, following 2 days of G-CSF, FIG. 1B) of the same compound?
The value was 2.5 fold.

What about the “increase of CFCs mobilized to the spleen” value ([2]; Example 1: Compound X 3 days added to G-CSF, following 3 days of G-CSF, FIG. 1B) of the same compound?
The value was 6 fold.

And the “increase in the number of CFC/mL blood” value ([2]; Example 3: 4 days G-CSF, addition of Compound X, P<0.001)?
The value was 4 fold.

And the “number of CFC/spleen” value ([2]; Example 3: 4 days G-CSF, addition of Compound X, P<0.01)?
The value was “further significant increase”.

And the mobilizing effect ([2]; Example 3: Compound X alone (data not shown))?
The mobilizing effect was “no mobilizing effect”.

And the “CFC mobilized to the blood versus G-CSF alone” value ([2]; Example 3: G-CSF 250 μg/kg/day 2 days + Compound X 20 mg/kg/day 3 days (G+X3), p<0.001, FIG. 2B)?
The value was 4 fold.

And the “CFC mobilized to the spleen versus G-CSF alone” value ([2]; Example 3: G-CSF 2 days + Compound X 20 mg/kg/day 3 days (G+X3), p<0.001, FIG. 2B)?
Its value is 47 fold.

What about the “number of CFC mobilized per mL blood in response to Plerixafor” value ([2]; Plerixafor 1 h plus 2 to 3 day treatment with Compound X, FIG. 1D) of the same compound?
The value was “significantly increased”.
